Converted amounts (≈) assume the structure as drawn.
Tests used:
[1] = tested on: Staphylococcus aureus ATCC 6538; assay: Determination of the minimum inhibition concentration (MIC value) in microtitre plates; assay type: cell-based; conditions: CASO broth, 37° C., 48 hours, optical density at 620 nm, MIC = <20% growth vs growth control
Text: (§1) Determination of the Minimum Inhibition Concentration (MIC Value) in Microtitre Plates Nutrient Medium: Casein-soy flour-peptone broth for the preparation of the precultures of the test bacteria and yeast. Examples of Test Microbes: Bacteria: Staphylococcus aureus ATCC 6538 • Escherichia coli NCTC 8196 (=EC) Procedure: The test substances are predissolved in dimethyl sulphoxide (DMSO) and tested in a dilution series of 1:2. The bacteria are cultivated overnight in CASO broth and sponged off with 10 ml of 0.85% sodium chloride solution (+0.1% TritonX-100). All of the test microbes are adjusted to a microbial count of 1-5×10^6 CFU/ml with 0.85% sodium chloride solution. The test substances are prepipetted at 8 μl per well into microtitre plates. Prediluted microbial suspensions are diluted 1:100 in CASO broth and added at 192 μl per well to the test substances. The test mixtures are incubated at 37° C. for 48 hours. After incubation, the growth is determined by reference to the clouding of the test mixtures (optical density) at 620 nm in a microplate reader. The minimum inhibition concentration (MIC value) is the concentration of substance at which (compared with the growth control) a significant growth inhibition (<20% growth) of the test microbes is established. One microtitre plate is prepared per test microbe and substance concentration. All of the substances are tested in duplicate.

[2] = tested on: Escherichia coli NCTC 8196; assay: as above; assay type: cell-based; set-up: unit not given here; conditions: CASO broth, 37° C., 48 hours, optical density at 620 nm; MIC = <20% growth vs growth control
Text: as §1

MIC Staphylococcus aureus [1] [ppm]	MIC Escherichia coli [2]	MIC ([1]; Staphylococcus aureus, ATCC6538) [mg/L]	SMILES
60	>120		CCCCCCCCOc1ccccc1CO [(5)]
120	60		CCCCCCOc1ccc(CO)cc1 [(10)]
	15	15 (≈ 63.5 µM)	CCCCCCCCOc1ccc(CO)cc1 [(11)]
15	30		CCCCCCCCOc1cccc(CO)c1 [(14)]
120	120		CCCCCC(C)Oc1cccc(CO)c1 (stereo not drawn) [(15)]
120	60		CCCCOc1ccc(OC)cc1CO [(19)]
60	60		CCCCCCOc1ccc(OC)cc1CO [(20)]
30	30		CCCCCCCCOc1ccc(OC)cc1CO [(21)]
60	60		CCCCCC(C)Oc1ccc(OC)cc1CO (stereo not drawn) [(23)]
15	15		CCCCCCCCOc1cccc(OC)c1CO [(26)]
30	60		CCCCCCCCOc1c(CO)cccc1OC [(27)]
30	30		CCCCCCCCOc1ccc(CO)cc1OC [(28)]
120	>120		C=CC[Si](C)(C)COc1ccc(CO)cc1OC[Si](C)(C)CC=C [(29)]
60	60		CCCCCCCCOc1ccc(CO)cc1OCCCCCCCC [(30)]
120	>120		CCCCCCCCCCCCOc1ccc(CO)cc1OCCCCCCCCCCCC [(31)]
60	>120		CCCCCCCCCCCCOc1ccc(CO)c(OCCCCCCCCCCCC)c1 [(32)]
120	60		CCCCCCCCOc1ccc(OCCCCCCCC)c(CO)c1 [(34)]
60	120		CCCCCCCCCCCCOc1ccc(OCCCCCCCCCCCC)c(CO)c1 [(35)]

The next lines start with the molecule.

SMILES	MIC Staphylococcus aureus [1] [ppm]	MIC Escherichia coli [2]	MIC ([1]; Staphylococcus aureus, ATCC6538) [mg/L]
C[Si](C)(C)CCCOc1ccccc1CO [(3)]	60	>120	
C[Si](C)(C)COc1ccccc1CO [(4)]	120	>120	
CCC(CC)Oc1ccccc1CO [(6)]	120	>120	
CCCCCC(C)Oc1ccccc1CO (stereo not drawn) [(7)]	120	>120	
C[Si](C)(C)CCCOc1ccc(CO)cc1 [(8)]	60	60	
COCCOCCOc1ccc(CO)cc1 [(9)]	30	60	
C[Si](C)(C)CCCOc1cccc(CO)c1 [(12)]	60	60	
C[Si](C)(COc1cccc(CO)c1)c1ccccc1 [(13)]	60	>120	
COc1ccc(OCCC[Si](C)(C)C)c(CO)c1 [(16)]	15	>120	
COc1ccc(OC[Si](C)(C)C)c(CO)c1 [(17)]	60	60	
COc1ccc(OCCOc2ccccc2)c(CO)c1 [(18)]	120	60	
CCC(CC)Oc1ccc(OC)cc1CO [(22)]	60	60	
COc1ccc(OC2CCCCC2)c(CO)c1 [(24)]	60	60	
COc1ccc(OCc2ccccc2)c(CO)c1 [(25)]	120	120	
OCc1ccc(OC2CCCCC2)cc1OC1CCCCC1 [(33)]	15	>120	

From patent US20050124579A1, “Benzyl alcohol derivatives” (priority 2002, published 2005)
